Ten compounds from ChEMBL document CHEMBL1151975, “Isolation, structure, and antibacterial activities of lucensimycins D-G, discovered from Streptomyces lucensis MA7349 using an antisense strategy” (2009) can be followed below.

Structures are written as SMILES. Converted amounts (≈) assume the structure as drawn. The source made the active and inactive calls. The rule behind the calls is not given here.

One experiment concerns Streptococcus pneumoniae. Briefly: Antimicrobial activity against Streptococcus pneumoniae CL 2883. The experiment is classed as functional.
Experiment [1] relates to Staphylococcus aureus. Nature of the experiment: Antimicrobial activity against Staphylococcus aureus Smith at 250 ug/ml. Format: functional, organism-based.
In another experiment the test system is Escherichia coli. Briefly: Antimicrobial activity against Escherichia coli at 250 ug/ml. The experiment is classed as functional, organism-based.
For a further experiment, the system named is Enterococcus faecalis. Nature of the experiment: Antimicrobial activity against Enterococcus faecalis at 250 ug/ml. The experiment is classed as functional, organism-based.
A further experiment deals with Bacillus subtilis. Briefly: Antimicrobial activity against Bacillus subtilis at 250 ug/ml. The experiment is classed as functional, organism-based.
The next experiment deals with Haemophilus influenzae. Briefly: Antimicrobial activity against Haemophilus influenzae at 250 ug/ml. The experiment is classed as functional, organism-based.
The next experiment has as its system Candida albicans. Briefly: Antimicrobial activity against Candida albicans at 250 ug/ml. Format: functional, organism-based.
Experiment [2] relates to Staphylococcus aureus. Briefly: Antimicrobial activity against Staphylococcus aureus EP167 at 0.5 mg/ml by two-plate assay. Format: functional, organism-based.
Another experiment deals with Streptomyces noursei. Briefly: Antimicrobial activity against Streptomyces albulus MJ202-72F3. Format: functional.
Experiment [3] relates to Staphylococcus aureus. Nature of the experiment: Antimicrobial activity against Staphylococcus aureus bearing antisense rpsD gene by two-plate assay. Format: functional.
For experiment [4], the system named is Staphylococcus aureus. Nature of the experiment: Antimicrobial activity against Staphylococcus aureus Smith. The experiment is classed as functional.

`CC(=O)N[C@H](CSC[C@H]1OC(=O)[C@@]2(C1=O)C(=O)[C@@]1(C)[C@@H](C=C[C@H]3[C@H](O)[C@@H](C)[C@H](OC(C)=O)C[C@@H]31)C[C@H]2/C=C/C=C/C=C/C(=O)O)C(=O)N[C@H]1[C@@H](O[C@@H]2[C@@H](O)[C@H](O)[C@@H](O)[C@H](O)[C@@H]2O)O[C@@H](CO)[C@@H](O)[C@@H]1O`: the outcome with Streptococcus pneumoniae, in the experiment on Staphylococcus aureus [1], in the experiment with Escherichia coli, in the experiment with Enterococcus faecalis, with Bacillus subtilis and in the experiment on Haemophilus influenzae was inactive. Also, in the experiment with Candida albicans, the outcome was inactive. For the same compound, in the experiment on Staphylococcus aureus [2], the outcome was Active.

Take `CCC(O)C(C)/C=C/C=C/C(O)CC1C=CC2CC(C)CC(C)C2C1(C)C(=O)C1=C(O)CNC1=O` (stereo not drawn) [DELAMINOMYCIN C]: in the experiment on Streptomyces noursei, inhibition of growth (MIC) required 25 µg/mL (≈ 51.5 µM).

Take `C=C(OC(=O)[C@@H]1C(=O)[C@@]2(C)[C@@H](C=C[C@H]3[C@H](O)[C@@H](C)[C@H](OC(C)=O)C[C@@H]32)C[C@H]1/C=C/C=C/C=C/C(=O)O)C(=O)O`: the outcome in the experiment with Streptococcus pneumoniae, with Staphylococcus aureus [1], in the experiment with Escherichia coli, in the experiment with Enterococcus faecalis, with Bacillus subtilis and with Haemophilus influenzae was inactive. Also, the outcome with Candida albicans was inactive.

In the case of `CC(=O)O[C@@H]1C[C@H]2[C@@H](C=C[C@H]3C[C@@H](/C=C/C=C/C=C/C(=O)O)[C@@]4(C(=O)O[C@@H](CO)C4=O)C(=O)[C@@]32C)[C@H](O)[C@H]1C`, the result with Streptococcus pneumoniae, with Staphylococcus aureus [1], in the experiment with Escherichia coli, in the experiment with Enterococcus faecalis, with Bacillus subtilis and in the experiment on Haemophilus influenzae was inactive. Besides, the outcome in the experiment with Candida albicans was inactive.

Consider `C=C1OC(=O)[C@@]2(C1=O)C(=O)[C@@]1(C)[C@@H](C=C[C@H]3[C@H](O)[C@@H](C)[C@H](OC(C)=O)C[C@@H]31)C[C@H]2/C=C/C=C/C=C/C(=O)O` [LUCENSIMYCIN A], for which the result in the experiment with Streptococcus pneumoniae, with Staphylococcus aureus [1], in the experiment with Escherichia coli, in the experiment on Enterococcus faecalis, with Bacillus subtilis and in the experiment on Haemophilus influenzae was inactive. Further, the result in the experiment on Candida albicans was inactive. Further, the “inhibition zone (IZ)” value in the experiment on Staphylococcus aureus [3] was 12 mm. In addition, the outcome in the experiment with Staphylococcus aureus [2] was Active.

For `CC(=O)N[C@H](CSC[C@@H]1OC(=O)[C@@]2(C1=O)C(=O)[C@@]1(C)[C@@H](C=C[C@H]3[C@H](O)[C@@H](C)[C@H](OC(C)=O)C[C@@H]31)C[C@H]2/C=C/C=C/C=C/C(=O)O)C(=O)O` [LUCENSIMYCIN D], in the experiment with Streptococcus pneumoniae, the MIC (in general, the lowest concentration that inhibits growth of the organism) amounted to 250 µg/mL (≈ 363 µM). Moreover, the outcome in the experiment on Staphylococcus aureus [1] was inactive. Also, in the experiment with Staphylococcus aureus [3], the “inhibition zone (IZ)” value turned out to be 12 mm.

In turn, `CCC(O)C(C)/C=C/C=C/C(O)CC1C=CC2CC(C)CC(C)C2C1(C)C(=O)C1=C(O)C(O)NC1=O` (stereo not drawn) [DELAMINOMYCIN A] displayed a minimum inhibitory concentration (MIC) against Streptomyces noursei of 25 µg/mL (≈ 49.8 µM).

For the compound `CC(=O)N[C@H](CSC[C@@H]1OC(=O)[C@@]2(C1=O)C(=O)[C@@]1(C)[C@@H](C=C[C@H]3[C@H](O)[C@@H](C)[C@H](OC(C)=O)C[C@@H]31)C[C@H]2/C=C/C=C/C=C/C(=O)O)C(=O)N[C@H]1[C@@H](O[C@@H]2[C@@H](O)[C@H](O)[C@@H](O)[C@H](O)[C@@H]2O)O[C@@H](CO)[C@@H](O)[C@@H]1O`, the outcome in the experiment on Streptococcus pneumoniae, with Staphylococcus aureus [1], in the experiment with Escherichia coli, with Enterococcus faecalis, with Bacillus subtilis and in the experiment on Haemophilus influenzae was inactive. The result with Candida albicans was inactive. For the same compound, in the experiment on Staphylococcus aureus [2], the result was Active.

Regarding `CC(=O)N[C@H](CSC[C@H]1OC(=O)[C@@]2(C1=O)C(=O)[C@@]1(C)[C@@H](C=C[C@H]3[C@H](O)[C@@H](C)[C@H](OC(C)=O)C[C@@H]31)C[C@H]2/C=C/C=C/C=C/C(=O)O)C(=O)O` [LUCENSIMYCIN E], the MIC against Staphylococcus aureus [4] was 32 µg/mL (≈ 46.5 µM); in the experiment on Streptococcus pneumoniae, 8 µg/mL (≈ 11.6 µM). For the same compound, the “inhibition zone (IZ)” value with Staphylococcus aureus [3] amounted to 12 mm.

Compound `CCC(O)C(C)/C=C/C=C/C(O)CC1C=CC2CC(C)CC(C)C2C1(C)C(=O)C1=C(O)C(OC)NC1=O` (stereo not drawn) [DELAMINOMYCIN B] yielded an MIC in the experiment on Streptomyces noursei of 25 µg/mL (≈ 48.5 µM).
